# Read-outs that look alike come from different tables or passages of the source.
# How the values were obtained:
# [1] = system: SH-SY5Y cells; assay: Antioxidant activity, H2O2-induced ROS production, DCFH-DA assay; type: cell-based; conditions: Homo sapiens, 20 µM compound, 100 µM hydrogen peroxide, read-out: ROS scavenging, maximum effect relative to effect of 100 µM quercetin
# Experimental: (§1) Protection from Aβ42-induced cytotoxicity was measured for compound 28 in a conventional cell-based assay, measuring cell viability by means of MTT reduction. Antioxidant activity of 28 was assessed in an H2O2-induced oxidation cell model. Reactive oxygen species (ROS) production was detected by means of a spectrofluorometric measure of the fluorescent probe 2′,7′-dichlorofluorescein (DCF), formed by oxidation of 2′,7′-dichlorodihydrofluorescein (DCFH). In both assays, human SH-SY5Y neuroblastoma cell line was used.
# Intracellular ROS production was evaluated using an oxidation-sensitive fluorescent probe, 2′,7′-dichlorodihydrofluorescin diacetate (DCFH-DA; Sigma-Aldrich). Viable SHSY5Y cells were seeded in a black 96-well cell culture plate for 24 h, then the cells were incubated in DMEM supplemented with different concentration (0 to 20 μM) of 28 for 1 h. After washing, DCFH-DA (50 μM final concentration) was added directly to each well, and the plate was incubated at 37 °C in 5% CO2 for 0.5 h. […] The formation of fluorescent dichlorofluorescein (DCF) due to oxidation of DCFH in the presence of ROS was read directly in each well at an excitation wavelength of 485 nm and an emission wavelength of 530 nm using a multilabel plate reader Victor3 V (Perkin Elmer), with DMSO medium as the control.
# [2] = Lipophilicity by RP-HPLC (log k'w); type: physicochemical; conditions: RP-HPLC C18, MeOH/10 mM ammonium formate buffer pH 4.5, extrapolated to 100% aqueous mobile phase, 25 °C
# Experimental: To place on a more quantitative basis the above SAR trends, the lipophilicity of a number of isatin arylhydrazone derivatives was measured by an RP-HPLC method. The polycratic capacity factors (log k’w) were determined (details in the Experimental Section). Lipophilicity descriptors (i.e., 1-octanol–water partition coefficients) were also calculated (CLOGPs) using two computational tools (Bio-Loom software, v. 1.7 and ACDLabs software, release 10.0). The ACDLabs software was used also for calculating descriptors of polarizability and size, namely molar refractivity (CMR) and molar volume (MV). The experimental lipophilicity parameters (log k’w), along with CMR and MV, are reported in Table 6 for 18 compounds achieving finite IC50s (<100 µM) in the Aβ aggregation assay.
# The lipophilicity parameters were determined by an RP-HPLC technique. Methanol solutions of the investigated hydrazone compounds (0.5 mg/mL) were injected into an Agilent 1260 infinity HPLC system (Agilent Technologies Italia, Milan), equipped with a diode array detector (DAD), and a Phenomenex Kinetex C18 column (150 × 4.6 mm, 5 μ, Phenomenex Italy s.r.l., Castel Maggiore, BO, Italy), and eluted at different mobile phase compositions (0.05 increments of MeOH volume fraction in 10 mM ammonium formate buffer at pH 4.5, ranging ϕ between 0.85 and 0.30). All RP-HPLC measurements were carried out at 25 ± 1 °C, at a flow rate of 1.0 mL/min, and at 254 nm wavelength.
# The logarithm of capacity factors (log k′ = log (tR − t0)/t0) of each compound at different mobile phase compositions have been calculated; tR represents the retention time of the solute and t0 is the column dead time, measured as the elution time of a KNO3 solution in MeOH. For each compound, the log k′ values increased linearly with decreasing MeOH volume fraction. Logarithms of capacity factors extrapolated to the 100% aqueous mobile phase (log k′w) were calculated from the linear regressions on at least five data points (r^2 > 0.975).
# [3] = target: T1, Aβ40 peptide (Homo sapiens, UniProt P05067); assay: Inhibition of Aβ40 aggregation, ThT fluorescence-based method; type: biochemical
# T1 construct: we preferred using Aβ40 peptide
# T1 sequence (P05067 672-711 limits assumed): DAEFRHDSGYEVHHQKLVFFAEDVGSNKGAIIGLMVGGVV
# Experimental: In vitro inhibition of Aβ aggregation was assessed through a ThT fluorescence-based method, with the use of 2% 1,1,1,3,3,3-hexafluoroisopropanol (HFIP) as aggregation enhancer. In this medium-throughput assay, we preferred using Aβ40 peptide, being more manageable than Aβ42 and less prone to the formation of preaggregates. Samples of Aβ were co-incubated with test molecules in PBS at 100 µM concentration and the antiaggregating activities were measured after 2 h of incubation at 25 °C. For compounds showing >80% Aβ40 aggregation inhibition, IC50s were determined.
# (§2) The spectrofluorimetric assays, measuring ThT fluorescence in the presence of Aβ, were done as previously described. Briefly, coincubation samples were prepared as described above (Section 2.2 and Section 2.3) in 96-well black, non-binding microplates (Greiner Bio-One GmbH, Frickenhausen, Germany). Fluorimetric reads were performed in a multiplate reader Infinite M1000 Pro (Tecan, Cernusco sul Naviglio, Italy). Each concentration point was run in triplicate. CD ellipticity measures were performed as detailed in ref. [20], following the increase of the negative band at 215 nm as indicative of β-sheet arrangement.
# [4] = target: Aβ42 peptide (Homo sapiens, UniProt P05067); assay: Kinetics of Aβ42 fibrillization (ThT fluorescence and CD); type: biochemical; conditions: 50 µM Aβ42 with 20 µM compound, PBS 2% ethanol, 37 °C, after one week
# Aβ42 peptide, sequence (P05067 672-713 limits assumed): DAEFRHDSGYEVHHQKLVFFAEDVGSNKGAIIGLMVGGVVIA
# Experimental: For ThT and circular dichroism (CD) time-course measures of Aβ aggregation (50 µM), alone or in the presence of 28 (20 µM), samples were prepared in PBS containing 2% v/v ethanol as the cosolvent, and incubated at 37 °C. Aβ42 peptide was preferred, being the principal responsible of amyloid burden in AD brain. Kinetics of amyloid aggregation of Aβ42 was followed by means of ThT fluorescence and CD absorption. In the latter case, we monitored the increase of the negative band at 215 nm, probing the random coil to β-sheet transition in folding peptide. Results depicted in Figure 4 show a fast fibrillization of self-aggregating peptide (dotted black line), with fibrils already detectable in large amount in the first 48 h of incubation.
# as §2
# [5] = system: SH-SY5Y cells; assay: Protection from Aβ42-induced cytotoxicity, MTT assay; type: cell-based, human; conditions: 5 µM Aβ42 co-incubated with equimolar 5 µM compound, within two days
# Experimental: as §1
# Cytoprotection from Aβ42-induced neurotoxicity and from ROS generation was assessed in SH-SY5Y cells as already described. At least three independent experiments with six replicates (n ≥ 18) were carried out, and the results were averaged. Briefly, for MTT assay, SH-SY5Y cells were cultured in DMEM-Dulbecco’s modified Eagle’s medium (Sigma-Aldrich), grown to 70% confluence and seeded for experiment in 96-well plates at a density of 10,000 cells/well. Cultured cells were added with a DMEM solution of Aβ42, alone or in mixture with 28 (5 μM final concentration of both) and incubated at 37 °C in 5% CO2. […] After removal of solution and addition of DMSO, the absorbance of product formazan produced from MTT was measured at 570 nm using a multilabel plate counter Victor3 V (Perkin Elmer, Milan, Italy), with DMSO medium as the blank solution.
# [6] = Aqueous solubility in Tris/HCl buffer; type: physicochemical; conditions: pH 7.4 at 25 °C
# Description: Based on data in Table 1, Table 2, Table 3, Table 4 and Table 5, compound 28 was selected for further biological and biophysical studies, aimed at elucidating the mechanism of disruption of Aβ aggregation, and evaluating the activity in biochemical assays related to neurodegeneration, and cytoprotection in a cell model of Aβ toxicity. Starting from the evidence that a bulky substituent led to a net improvement of antiaggregating activity (Table 5), we chose the N^1-cyclopropyl derivative 28 as the best compromise between in vitro activity and aqueous solubility.
# [7] = set-up: method as in PMID 28801274; conditions: pH 7.4 and 37 °C; cited from earlier work
# [8] = target: T1, Aβ40 peptide; set-up: method as in PMID 21144622; conditions: read-out: IC50 inhibition of Aβ40 aggregation; hit compound, previously reported; cited from earlier work
# [9] = system: AChE; set-up: method as in PMID 28801274; conditions: read-out: IC50 AChE inhibition; cited from earlier work
# [10] = set-up: method as in PMID 28801274; conditions: Tris/HCl buffer, pH 7.4 at 25 °C; cited from earlier work
SMILES,Emax at 20 µM [1] [%],log k'w [2],IC50 [3] [nM],fibril content compared with that of control peptide [4],cell viability (MTT reduction) [5],solubility [6] [µM],"IC50 ([3]; Aβ40 aggregation inhibition, read-out: pIC50, Aβ antiaggregating potency (converted)) [nM]",half-life [7] [h],IC50 [8] [nM],IC50 [9] [nM],solubility [10] [µM]
"COc1ccc2c(c1)/C(=N/Nc1ccc(C(C)C)cc1)C(=O)N2C1CC1 [Compound 28, (Z)-1-Cyclopropyl-3-(2-(4-isopropylphenyl)hydrazono)-5-methoxyindolin-2-one]",~50,6.36,800 ± 130,about 30%,fully viable,21,–,–,–,–,–
"COc1ccc2c(c1)/C(=N/Nc1ccc(C(C)C)cc1)C(=O)N2 [Compound 1, (3Z)-5-methoxy-1H-indole-2,3-dione 3-[(4-isopropylphenyl)hydrazone]]",–,5.44,–,–,–,–,398,24,430 ± 40,6250,71

# Source: publication PMC6100259, “Insights into Structure-Activity Relationships of 3-Arylhydrazonoindolin-2-One Derivatives for Their Multitarget Activity on β-Amyloid Aggregation and Neurotoxicity” (Molecules : A Journal of Synthetic Chemistry and Natural …, 2018)
